Experimental data published in ChEMBL document CHEMBL1201862, “PubChem BioAssay data set” (2004).
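All cell lines were grown in 96-well plates and treated with compound for 48 hours. Abbreviation: GI50, concentration required for 50% inhibition of growth.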 Active and inactive are the calls of the source. No stated cut-off is given here; in the data, active = GI50 up to about 1.1 µM and inactive = higher.

Tests used:
Assay in all cases: NCI tumour cell line growth inhibition, 48 h
COLO 205 = test system: COLO 205
EKVX = test system: EKVX
HOP-92 = test system: HOP-92
HT-29 = test system: HT-29
LOX IMVI = test system: LOX IMVI
MCF7 = test system: MCF7
MDA-MB-231 = test system: MDA-MB-231
NCI-H226 = test system: NCI-H226
NCI-H23 = test system: NCI-H23
NCI/ADR-RES = test system: NCI/ADR-RES
PC-3 = test system: PC-3
RXF 393 = test system: RXF 393
SF-539 = test system: SF-539
SK-MEL-28 = test system: SK-MEL-28
SK-OV-3 = test system: SK-OV-3
SNB-19 = test system: SNB-19
SW-620 = test system: SW-620
T47D = test system: T47D
U-251 = test system: U-251
UACC-257 = test system: UACC-257

Measured: GI50

COc1ccc(/C=C/c2cc(OC)cc(=O)o2)cc1 [YANGONIN]
inactive: COLO 205 > 100 µM | EKVX > 100 µM | HOP-92 45.2 µM | HT-29 > 100 µM | LOX IMVI > 100 µM | MCF7 > 100 µM | MDA-MB-231 > 100 µM | NCI-H226 > 100 µM | NCI-H23 51.8 µM | NCI/ADR-RES > 100 µM | PC-3 > 100 µM | RXF 393 44.2 µM | SF-539 10.2 µM | SK-MEL-28 > 100 µM | SK-OV-3 91.4 µM | SNB-19 50.4 µM | SW-620 > 100 µM | T47D > 100 µM | U-251 27.1 µM | UACC-257 > 100 µM
